We go through 13 compounds from ChEMBL document CHEMBL5214906, “Novel Antiplasmodial Compounds Leveraged with Multistage Potency against the Parasite Plasmodium falciparum: In Vitro and In Vivo Evaluations and Pharmacokinetic Studies” (J Med Chem, 2021).

Structures are written as SMILES. Activity calls are given as the source filed them. The calls are words filed in the database; no cut-off is given here.

One may read the IC50 as the concentration needed to halve the response being measured. The inhibition is the percentage by which the read-out fell short of the control. What is called Ki is a measure of affinity in units of concentration, obtained from inhibition or displacement.

Series [1] is described as follows: Cytotoxicity against human HepG2 cells assessed as reduction in cell viability incubated for 48 hrs by MTT assay. It is filed as toxicity, cell-based. The following applies: read-out: TC50.
The test system of series [2] is Plasmodium falciparum. Description: Antiplasmodial activity against Plasmodium falciparum 3D7 infected in human red blood cells assessed as inhibition of parasitemia incubated for 48 hrs by giemsa staining based light microscopic analysis. Particulars: 3D7, Erythrocyte. It is filed as functional, organism-based, Red blood cell.
Series [3] can be described thus: Therapeutic index, ratio of TC50 for cytotoxicity against human HepG2 cells to IC50 for antiplasmodial activity against Plasmodium falciparum 3D7 infected in human red blood cells. It counts as toxicity, cell-based. Particulars: read-out: TI.
For series [4], the system named is Plasmodium falciparum. Description: Inhibition of Plasmodium falciparum plasmepsin X […] at 1 uM using DABCYL-G-PSFVEAPVRGG-EDANS as substrate by fluorescence based assay relative to control.
A further series deals with Erythrocyte. Description: Hemolytic activity against human red blood cells upto 1600 uM incubated for 1 hrs by hemolysis assay. It counts as toxicity, cell-based.
For series [5], the system named is Plasmodium falciparum. Description: Induction of mitochondrial membrane loss in Plasmodium falciparum 3D7 assessed as reduction in red-green ratio at IC50 concentration incubated for 3 hrs by JC-1 staining based spectrofluorometric analysis. It counts as functional.
Series [6] concerns Plasmodium falciparum. Description: Resistance index, ratio of IC50 for antiplasmodial activity against chloroquine-resistant Plasmodium falciparum RKL-9 to IC50 for antiplasmodial activity against Plasmodium falciparum 3D7. It counts as functional.
Series [7] concerns Plasmodium falciparum. Description: Antiplasmodial activity against chloroquine resistant Plasmodium falciparum RKL-9 infected in human erythrocytes assessed as inhibition of parasitemia by SYBR green-I fluorescence based spectrofluorometric analysis. It counts as functional, organism-based. Particulars: RKL-9, Erythrocyte.
Series [8] relates to Plasmodium falciparum. Description: Antiplasmodial activity against Plasmodium falciparum 3D7 infected in human erythrocytes assessed as delay in maturation of rings at 1 to 10 uM measured for 56 hrs by giemsa staining based microscopic analysis. It is filed as functional, organism-based. Particulars: Erythrocyte, dose 1-10 µM.
For series [9], the system named is Plasmodium falciparum. Description: Antiplasmodial activity against Plasmodium falciparum 3D7 infected in human erythrocytes assessed as accumulation of parasite growth at late trophozoite stage at 1 to 10 uM measured after 56 hrs post-treatment by giemsa staining based microscopic analysis. It counts as functional, organism-based. The following applies: Erythrocyte, dose 1-10 µM.

Series [10] concerns Plasmodium berghei. Description: In vivo antimalarial activity against Plasmodium berghei ANKA infected in BALB/c mouse assessed as reduction in parasitemia at 50 mg/kg, ip administered for 4 consecutive days and measured on day 8 post-infection by geimsa staining based microscopic analysis relative to control. It is filed as functional. More on the design: scale not given: the % may be the effect or the level left. The following applies: time 8 day.

Series [11] deals with Plasmodium falciparum. Description: Antiplasmodial activity against Plasmodium falciparum 3D7 infected in human erythrocytes assessed as pyknotic trophozoites development at 1 to 10 uM measured for 56 hrs by giemsa staining based microscopic analysis. It counts as functional, organism-based. The following applies: Erythrocyte, dose 1-10 µM.
Series [12] has as its system Plasmodium falciparum. Description: Antiplasmodial activity against Plasmodium falciparum 3D7 infected in human erythrocytes assessed as transition from ring to trophozoite at 1 to 10 uM measured for 56 hrs by giemsa staining based microscopic analysis. The following applies: Erythrocyte, dose 1-10 µM. It is filed as functional, organism-based.
Series [13] concerns Plasmodium berghei. Description: In vivo antimalarial activity against Plasmodium berghei ANKA strain infected in BALB/c mouse assessed as increase in mean survival time at 50 mg/kg, ip administered for 4 days and measured upto 30 days (reference value: 13 days). It is filed as functional. Particulars: time <= 30 day.
Series [14] is described as follows: Inhibition of Plasmodium falciparum Plasmepsin X assessed as inhibition constant using DABCYL-G-PSFVEAPVRGG-EDANS as substrate by fluorescence based assay relative to control.
Series [15] relates to Plasmodium berghei. Description: In vivo antimalarial activity against Plasmodium berghei ANKA strain infected in C57BL/6 mouse assessed as increase in mean survival time at 30 mg/kg, ip administered for 4 days and measured upto 30 days (reference value: 13 days). It counts as functional. The following applies: time <= 30 day.
For series [16], the system named is Plasmodium berghei. Description: Antiplasmodial activity against firefly luciferase-expressing Plasmodium berghei liver stage infected in human Huh-7 cells assessed as inhibition of parasite growth preincubated with cells for 1 hrs followed by parasite infection and […] by bioluminescence assay. It is filed as functional, organism-based.

As to `O=C(Cc1cccc(C(F)(F)F)c1)N[C@@H](Cc1ccccc1)[C@@H](O)CN1CCN(Cc2ccccc2)CC1`, in [1], the CC50 at 48 h turned out to be 990 µM. In addition, in the series on Plasmodium falciparum [2], the IC50 stood at 1.1 µM. The selectivity ratio in series [3] is 900. In addition, the inhibition with Plasmodium falciparum [4] is 13.7%.

For `O=C(N[C@@H](Cc1ccccc1)[C@@H](O)CN1CCN(Cc2ccccc2)CC1)c1cnccn1`, the Activity result in the series with Erythrocyte is given as “Non-Toxic”. For the same compound, the CC50 at 48 h in series [1] is 1000 µM. Moreover, in the series with Plasmodium falciparum [5], the Ratio is 4.07. The 50% inhibitory concentration (IC50) with Plasmodium falciparum [2] and with Plasmodium falciparum [7] was 1.26 µM throughout. Further, the “Ratio IC50” value in the series on Plasmodium falciparum [6] was 1. The selectivity ratio in series [3] was 791. In the series with Plasmodium falciparum [4], this compound had an inhibition of 21%.

For the compound `O=C(N[C@@H](Cc1ccccc1)[C@@H](O)CN1CCN(Cc2ccccc2)CC1)c1ccc(N2CCOCC2)cc1`, the Activity entry is recorded as “Non-Toxic” in the series with Erythrocyte and 50% with Plasmodium berghei [10]. Also, the outcome in the series on Plasmodium falciparum [8], with Plasmodium falciparum [9], in the series with Plasmodium falciparum [11] and with Plasmodium falciparum [12] was Active. In series [1], the CC50 at 48 h was 317 µM. Further, in the series on Plasmodium falciparum [5], the Ratio was determined as 3.48. Further, the IC50 in the series on Plasmodium falciparum [2] worked out at 0.21 µM; in the series with Plasmodium falciparum [7], 0.86 µM. Further, the “Ratio IC50” value in the series with Plasmodium falciparum [6] was 3.93. Besides, the selectivity ratio in series [3] was 1450. Further, the MST with Plasmodium berghei [13] was found to be 15 days. In the series on Plasmodium falciparum [4], this compound displayed an inhibition of 28.4%.

Take `O=C(Cc1ccccc1)N[C@@H](Cc1ccccc1)[C@@H](O)CN1CCN(Cc2ccccc2)CC1`: the CC50 at 48 h in series [1] worked out at 305 µM. The half-inhibitory concentration (IC50) with Plasmodium falciparum [2] was more than 5 µM. Further, the selectivity ratio in [3] was less than 61. In the series with Plasmodium falciparum [4], the inhibition worked out at 6.85%.

Consider `CCC(C(=O)N[C@@H](Cc1ccccc1)[C@@H](O)CN1CCN(Cc2ccccc2)CC1)c1ccccc1` (stereo not given in full), for which the CC50 at 48 h in series [1] was 1350 µM. The IC50 with Plasmodium falciparum [2] was 0.95 µM. Also, the selectivity ratio in [3] turned out to be 1420. The inhibition in the series with Plasmodium falciparum [4] is 15.5%.

With `CN1CCN(c2ccc(C(=O)N[C@@H](Cc3ccccc3)[C@@H](O)CN3CCN(Cc4ccccc4)CC3)cc2)CC1`, in series [1], the CC50 at 48 h was 189 µM. For the same compound, the concentration for half-maximal inhibition (IC50) with Plasmodium falciparum [2] was 1 µM. Further, in series [3], the selectivity ratio worked out at 189. Besides, the inhibition in the series with Plasmodium falciparum [4] turned out to be 34%.

As to `Cc1ccc(OCC(=O)N[C@@H](Cc2ccccc2)[C@@H](O)CN2CCN(Cc3ccccc3)CC2)cc1`, in series [1], the CC50 at 48 h worked out at 200 µM. The IC50 in the series on Plasmodium falciparum [2] was determined as 0.2 µM. Moreover, in series [3], the selectivity ratio worked out at 1000. In addition, in the series on Plasmodium falciparum [4], the inhibition was found to be 24.5%.

Turning to `CN1CCN(Cc2ccc(C(=O)N[C@@H](Cc3ccccc3)[C@@H](O)CN3CCN(Cc4ccccc4)CC3)cc2)CC1`, in [1], the CC50 at 48 h was found to be 860 µM. In addition, in series [14], the Ki came to 0.91 µM. For the same compound, the IC50 with Plasmodium falciparum [2] is 0.97 µM. For the same compound, the selectivity ratio in [3] came out at 887. The compound further returned an inhibition with Plasmodium falciparum [4] of 38.6%.

For the compound `C[C@H]1[C@H](OC(=O)CCC(=O)O)O[C@@H]2O[C@@]3(C)CC[C@H]4[C@H](C)CC[C@@H]1[C@@]24OO3` [ARTESUNATE], in the series on Plasmodium berghei [15], the MST came to 24 days.

In the case of `O=C(N[C@@H](Cc1ccccc1)[C@@H](O)CN1CCN(Cc2ccccc2)CC1)c1cnc2ccccc2c1`, the Activity result in the series on Erythrocyte is “Non-Toxic”. In addition, the CC50 at 48 h in series [1] was determined as 100 µM. Besides, the IC50 with Plasmodium falciparum [2] was determined as 0.25 µM. Besides, in series [3], the selectivity ratio amounted to 400. In addition, the inhibition in the series on Plasmodium falciparum [4] was found to be 11.7%.

With `O=C(CCc1ccc(Br)cc1)N[C@@H](Cc1ccccc1)[C@@H](O)CN1CCN(Cc2ccccc2)CC1`, the CC50 at 48 h in series [1] was found to be 129 µM. Moreover, the IC50 was 0.51 µM with Plasmodium falciparum [2] and 3.97 µM in the series with Plasmodium berghei [16]. Moreover, in [3], the selectivity ratio is 252. Further, in the series on Plasmodium falciparum [4], the inhibition was 21.5%.

Regarding `O=C(N[C@@H](Cc1ccccc1)[C@@H](O)CN1CCN(Cc2ccccc2)CC1)c1ccc(F)cc1`, the result in the series on Plasmodium falciparum [8] and in the series with Plasmodium falciparum [11] was Active. In addition, in [1], the CC50 at 48 h came to 267 µM. The Ratio in the series on Plasmodium falciparum [5] is 3.73. In addition, the IC50 in the series with Plasmodium falciparum [2] came out at 0.41 µM; in the series on Plasmodium falciparum [7], 0.72 µM. Moreover, in the series on Plasmodium falciparum [6], the “Ratio IC50” value worked out at 1.73. The selectivity ratio in [3] is 636. The same compound yielded an inhibition in the series with Plasmodium falciparum [4] of 0.92%.

Turning to `Cc1cnc(C(=O)N[C@@H](Cc2ccccc2)[C@@H](O)CN2CCN(Cc3ccccc3)CC2)cn1`, the Activity entry in the series on Erythrocyte was “Non-Toxic”. Also, the CC50 at 48 h in series [1] was 285 µM. For the same compound, the Ratio in the series on Plasmodium falciparum [5] stood at 4.28. Besides, the concentration for half-maximal inhibition (IC50) turned out to be 1.22 µM in the series with Plasmodium falciparum [2] and 0.79 µM with Plasmodium falciparum [7]. Also, the “Ratio IC50” value in the series with Plasmodium falciparum [6] is 0.65. Moreover, the selectivity ratio in series [3] was found to be 232. In the series on Plasmodium falciparum [4], this compound displayed an inhibition of 8.79%.
